Experimental data: ChEMBL document CHEMBL2163329, “Tuberculosis: the drug development pipeline at a glance” (Eur J Med Chem, 2012)
Converted amounts (≈) assume the structure as drawn.

Columns and labels:
[1] = system: Mycobacterium tuberculosis; experiment: Antimycobacterial activity against drug-sensitive Mycobacterium tuberculosis; assay type: functional
[2] = Bioavailability in human at 1200 mg; assay type: ADME, organism-based; conditions: in vivo
[3] = Bioavailability in human at 50 mg; assay type: ADME, organism-based; conditions: in vivo
[4] = system: Mycobacterium tuberculosis; experiment: Antimycobacterial activity against Mycobacterium tuberculosis infected in human assessed as log reduction of bacterial count at 400 mg, qd measured up to 7 days; assay type: functional
[5] = AUC at steady state (0 to 24 hrs) in human at 400 mg, po qd for 14 days; assay type: ADME, organism-based; set-up: dose 400 mg, time < 24 hr, route oral; conditions: plasma
[6] = AUC at steady state (0 to 24 hrs) in human at 50 mg, po qd for 14 days; assay type: ADME, organism-based; set-up: dose 50 mg, time < 24 hr, route oral; conditions: plasma
[7] = AUC at steady state (0 to 24 hrs) in human at 150 mg, po qd for 14 days; assay type: ADME, organism-based; set-up: dose 150 mg, time < 24 hr, route oral; conditions: plasma
[8] = Cmax in human at 10 mg, po; assay type: ADME, organism-based; set-up: dose 10 mg, route oral; conditions: in vivo
[9] = Cmax in human at 400 mg, po; assay type: ADME, organism-based; set-up: dose 400 mg, route oral; conditions: in vivo
[10] = system: Mycobacterium tuberculosis; experiment: Antimycobacterial activity against Mycobacterium tuberculosis clinical isolate; assay type: functional
[11] = system: Mycobacterium tuberculosis; experiment: Antimycobacterial activity against Mycobacterium tuberculosis H37Rv; assay type: functional
[12] = system: Mycobacterium tuberculosis; experiment: Antimycobacterial activity against Mycobacterium tuberculosis; assay type: functional
[13] = system: Mycobacterium tuberculosis; experiment: Antimycobacterial activity against Mycobacterium tuberculosis infected in macrophages assessed as bacterial growth inhibition at 4 ug/mL; assay type: functional; conditions: read-out: GI
[14] = system: Mycobacterium tuberculosis; experiment: Antimycobacterial activity against Mycobacterium tuberculosis infected in mouse assessed as log reduction of CFU in lung at 100 mg/kg; assay type: functional
[15] = AUC (0 to 24 hrs) in monkey at 5 mg/kg; assay type: ADME, organism-based, Macaca mulatta; set-up: time < 24 hr, dose 5 mg/kg; conditions: rhesus monkey, plasma
[16] = Cmax in monkey at 5 mg/kg; assay type: ADME, organism-based, Macaca mulatta; set-up: dose 5 mg/kg; conditions: rhesus monkey, in vivo
[17] = Cmax in mouse serum at 100 mg/kg; assay type: ADME, organism-based; set-up: dose 100 mg/kg
[18] = Half life in mouse lung at 100 mg/kg; assay type: ADME, organism-based; set-up: dose 100 mg/kg
[19] = AUC (0 to infinity) in mouse serum at 100 mg/kg; assay type: ADME, organism-based; set-up: time infinity, dose 100 mg/kg
[20] = Half life in mouse serum at 100 mg/kg; assay type: ADME, organism-based; set-up: dose 100 mg/kg
[21] = system: Mycobacterium tuberculosis; experiment: Ratio of gatifloxacin MIC to compound MIC for Mycobacterium tuberculosis; assay type: functional
[22] = system: Mycobacterium tuberculosis; experiment: Ratio of moxifloxacin MIC to compound MIC for Mycobacterium tuberculosis; assay type: functional
[23] = system: Mycobacterium tuberculosis; experiment: Ratio of levofloxacin MIC to compound MIC for Mycobacterium tuberculosis; assay type: functional
[24] = system: Mycobacterium tuberculosis; experiment: Antimycobacterial activity against Mycobacterium tuberculosis H37Rv infected in BALB/c mouse assessed as log reduction of CFU in lung at 300 mg/kg, po administered 6 times per week for 4 weeks; assay type: functional
[25] = system: Mycobacterium tuberculosis; experiment: Antimycobacterial activity against Mycobacterium tuberculosis H37Rv infected in BALB/c mouse assessed as log reduction of CFU in spleen at 300 mg/kg, po administered 6 times per week for 4 weeks; assay type: functional
[26] = AUC in Mycobacterium tuberculosis H37Rv infected BALB/c mouse at 37.5 to 300 mg/kg, po administered 6 times per week for 4 weeks; assay type: ADME, organism-based; set-up: dose 37.5-300 mg/kg, route oral; conditions: plasma
[27] = Cmax in Mycobacterium tuberculosis H37Rv infected BALB/c mouse at 37.5 to 300 mg/kg, po administered 6 times per week for 4 weeks; assay type: ADME, organism-based; set-up: dose 37.5-300 mg/kg, route oral; conditions: in vivo
[28] = system: Mycolicibacterium smegmatis; experiment: Antimycobacterial activity against Mycobacterium smegmatis; assay type: functional
[29] = system: Mycobacterium tuberculosis; experiment: Antimycobacterial activity against Mycobacterium tuberculosis infected in human assessed as log reduction of bacterial count at 200 to 1200 mg; assay type: functional
[30] = Cmax in human at 50 to 1500 mg, po; assay type: ADME, organism-based; conditions: in vivo
[31] = AUC in human at 50 to 1500 mg, po; assay type: ADME, organism-based; conditions: plasma
[32] = Tmax in human at 50 to 1500 mg, po; assay type: ADME, organism-based; conditions: in vivo
[33] = system: Mycobacterium tuberculosis; experiment: Antimycobacterial activity against Mycobacterium tuberculosis infected in mouse administered as qd; assay type: functional
[34] = system: Mycobacterium tuberculosis; experiment: Antimycobacterial activity against Mycobacterium tuberculosis infected in human assessed as log reduction of bacterial count at 100 to 400 mg, qd for 14 days; assay type: functional
[35] = Tmax in smear positive tuberculosis patient; assay type: ADME, organism-based; conditions: human, in vivo
[36] = AUC in Mycobacterium tuberculosis infected mouse at 2.5 mg/kg; assay type: ADME, organism-based; set-up: dose 2.5 mg/kg; conditions: plasma
[37] = Tmax in Mycobacterium tuberculosis infected mouse at 2.5 mg/kg; assay type: ADME, organism-based; set-up: dose 2.5 mg/kg; conditions: in vivo
[38] = AUC in mouse at 100 mg/kg; assay type: ADME, organism-based; set-up: dose 100 mg/kg; conditions: plasma
[39] = system: Mycobacterium tuberculosis; experiment: Antimycobacterial activity against Mycobacterium tuberculosis infected in human assessed as log reduction of bacterial count at 400 mg, qd measured up to 2 days; assay type: functional
[40] = AUC in human at 400 mg, po; assay type: ADME, organism-based; conditions: plasma
Homo sapiens = experiment: (§1) Tmax in human at 400 mg, po; assay type: ADME, organism-based; conditions: in vivo
[41] = Bioavailability in human; assay type: ADME, organism-based; conditions: in vivo
[42] = as §1; assay type: ADME, organism-based; conditions: in vivo, 400 mg
[43] = Half life in human at 400 mg, po; assay type: ADME, organism-based; conditions: in vivo
[44] = system: Mycobacterium tuberculosis; experiment: Antimycobacterial activity against Mycobacterium tuberculosis infected in human assessed as log reduction of bacterial count at 300 mg, qd measured up to 2 days; assay type: functional
[45] = Half life in human up to 300 mg, po; assay type: ADME, organism-based; conditions: in vivo
[46] = Oral bioavailability in mouse at 10 mg/kg; assay type: ADME, organism-based; conditions: in vivo
[47] = system: Mycobacterium tuberculosis; experiment: Antimycobacterial activity against Mycobacterium tuberculosis infected in mouse assessed as log reduction of CFU in spleen at 10 to 25 mg/kg after 30 days; assay type: functional; conditions: dose mg/kg 10-25
[48] = system: Mycobacterium tuberculosis; experiment: Antimycobacterial activity against Mycobacterium tuberculosis infected in mouse assessed as log reduction of CFU in lung at 10 to 25 mg/kg after 30 days; assay type: functional; conditions: dose mg/kg 10-25

SMILES: CC(=O)NC[C@H]1CN(c2ccc(N3CCSCC3)c(F)c2)C(=O)O1 [SUTEZOLID]
- MIC [1]: 0.03 mg/L

SMILES: O=C([C@@H](O)CO)N1CC=C(c2c(F)cc(N3C[C@H](COc4ccon4)OC3=O)cc2F)CC1 [POSIZOLID]
- bioavailability [2]: < 30%
- bioavailability [3]: 100%

SMILES: COc1nc2ccc(Br)cc2cc1[C@@H](c1ccccc1)[C@@](O)(CCN(C)C)c1cccc2ccccc12 [BEDAQUILINE]
- log10CFU/ml [4]: 0.77
- AUC at 24 h [5]: 52 µg·h/mL
- AUC at 24 h [6]: 7.9 µg·h/mL
- AUC at 24 h [7]: 24 µg·h/mL
- Cmax [8]: 0.07 µg/mL
- MIC [1]: 0.003 mg/L
- Cmax [9]: 9 µg/mL
- MIC [10]: 0.03 mg/L (≈ 0.054 µM)
- MIC99 [11]: 0.03 mg/L (≈ 0.054 µM)

SMILES: CC(=O)NC[C@H]1CN(c2ccc(C(C)=O)cc2)C(=O)O1 [DUP-721]
- MIC [12]: 0.3 mg/L (≈ 1.09 µM)

SMILES: OC1CCN(C2CCN(CC34CC5CC(CC(C5)C3)C4)CC2)CC1
- inhibition of growth at 4 µg/mL [13]: 90%

SMILES: COc1c(N2CC3(CC3)[C@](C)(N)C2)c(F)cc2c(=O)c(C(=O)O)cn([C@@H]3C[C@@H]3F)c12
- log10cfu [14]: 2
- AUC(0-t) at 24 h [15]: 16.9 µg·h/mL
- Cmax [16]: 2.2 µg/mL
- Cmax [17]: 10.3 µg/mL
- half-life [18]: 1.93 h
- AUC(0-inf) [19]: 14.7 µg·h/mL
- half-life [20]: 1.51 h
- Ratio [21]: 4
- Ratio [22]: 4
- Ratio [23]: 4
- MIC90 [1]: 0.06 mg/L (≈ 0.143 µM)

SMILES: C[C@H]1COC2(CCN(c3nc(=O)c4cc(C(F)(F)F)cc([N+](=O)[O-])c4s3)CC2)O1 [BTZ-043]
- log10cfu [24]: 1
- log10cfu [25]: 2
- AUC at 672 h [26]: 4.6 µg·h/mL
- Cmax [27]: 2 µg/mL
- MIC [28]: 0.004 mg/L (≈ 0.00927 µM)
- MIC [12]: 0.001 mg/L (≈ 0.00232 µM)

SMILES: O=[N+]([O-])c1cn2c(n1)OC[C@@H](OCc1ccc(OC(F)(F)F)cc1)C2 [PRETOMANID]
- log10CFU/ml/day [29]: 0.1
- Cmax [30]: 0.3 µg/mL
- AUC [31]: 7.5 µg·h/mL
- Tmax [32]: 4 h
- MBC [33]: 100 mg/kg
- minimal effective dose ([33]; Mycobacterium tuberculosis, read-out: MED): 12.5 mg/kg
- MIC [1]: 0.06 mg/L
- MIC [11]: 0.039 mg/L (≈ 0.109 µM)

SMILES: C[C@@H]1COC2(CCN(c3nc(=O)c4cc(C(F)(F)F)cc([N+](=O)[O-])c4s3)CC2)O1
- MIC [28]: 0.004 mg/L (≈ 0.00927 µM)
- MIC [12]: 0.001 mg/L (≈ 0.00232 µM)

SMILES: CC(=O)NC[C@H]1CN(c2ccc(N3CCOCC3)c(F)c2)C(=O)O1 [LINEZOLID]
- MIC [12]: 0.125 mg/L (≈ 0.371 µM)

SMILES: C[C@]1(COc2ccc(N3CCC(Oc4ccc(OC(F)(F)F)cc4)CC3)cc2)Cn2cc([N+](=O)[O-])nc2O1
- log10CFU/ml/day [34]: 0.04
- Tmax [35]: 4 h
- AUC [36]: 4.13 µg·h/mL
- Tmax [37]: 6 h
- MIC [1]: 0.006 mg/L

SMILES: N#CCC(=O)N1CCC(c2nc(-c3cccs3)no2)CC1
- AUC [38]: 82 µg·h/mL

SMILES: COc1c(N2C[C@@H]3CCCN[C@@H]3C2)c(F)cc2c(=O)c(C(=O)O)cn(C3CC3)c12 [MOXIFLOXACIN]
- log10CFU/ml/day [39]: 0.33
- AUC [40]: 39 µg·h/mL
- Tmax (Homo sapiens): 1 h
- bioavailability [41]: 90%
- Cmax [9]: 4.3 µg/mL
- MIC [11]: 0.18 mg/L (≈ 0.448 µM)

SMILES: CO[C@H]1/C=C/O[C@@]2(C)Oc3c(C)c(O)c4c(O)c(c(/C=N/N5CCN(C)CC5)c(O)c4c3C2=O)NC(=O)/C(C)=C\C=C\[C@H](C)[C@H](O)[C@@H](C)[C@@H](O)[C@@H](C)[C@H](OC(C)=O)[C@@H]1C [RIFAMPIN]
- log10CFU/ml [4]: 1.7

SMILES: COc1c(N2CCNC(C)C2)c(F)cc2c(=O)c(C(=O)O)cn(C3CC3)c12 (stereo not given) [GATIFLOXACIN]
- log10CFU/ml/day [39]: 0.35
- AUC [40]: 30 µg·h/mL
- Tmax [42]: 1.5 h
- half-life [43]: 6.5 h
- Cmax [9]: 3.4 µg/mL
- MIC90 [10]: 0.007 mg/L (≈ 0.0186 µM)
- MIC [11]: 0.12 mg/L (≈ 0.32 µM)

SMILES: CC(=O)NC[C@H]1CN(c2ccc([S+](C)[O-])cc2)C(=O)O1 (stereo not given in full)
- MIC [12]: 0.3 mg/L (≈ 1.01 µM)

SMILES: NNC(=O)c1ccncc1 [ISONIAZID]
- log10CFU/ml [4]: 1.88
- log10CFU/ml/day [44]: 0.67

SMILES: CC(C)=CCC/C(C)=C/CNCCNC1C2CC3CC(C2)CC1C3 (stereo not given) [SQ109]
- half-life [45]: 61 h
- bioavailability [46]: 8%
- log10cfu [47]: 1.5
- log10cfu [48]: 1.5
- MIC [1]: 0.63 µM
